Test results from patent publication US10647959B2, “Cell-friendly inverse opal hydrogels for cell encapsulation, drug and protein delivery, and functional nanoparticle encapsulation” (President and Fellows of Harvard College, priority 2011, dated 2020).

System: Mouse mesenchymal stem cells (MSCs)
Conditions: 50 mM EDTA solution, up to 3 h incubation, fluorescent images (FIG. 5a)
Experimental: Subsequently, the viability of cells was measured with a live/dead cell assay by using calcein AM and ethidium homodimer-1.

## O=C(O)CN(CCN(CC(=O)O)CC(=O)O)CC(=O)O [EDTA, ethylenediaminetetraacetic acid]
  toxicity of the EDTA solution to the cells: no significant toxicity
